These results are taken from article PMC12119673, “Apoptotic cell death induced by copper (II), manganese (II) and silver (I) complexes containing bridging dicarboxylate and 1,10-phenanthroline ligands: one of the multi-modes of anticancer activity?” (Biometals, 2025).

What all share (type): cell-based, human
Data set [1] relates to MCF-7 cells. The data set can be described thus: In vitro cytotoxicity assessment, alamar blue assay, 24-h exposure. On the procedure:
The MCF-7 (human breast cancer) and MCF-12A (non-tumourigenic human breast) cell lines were obtained from the Technological University Dublin (TUDublin, City Campus) internal cell bank and commercially from the American Type Culture Collection (ATCC), respectively. Both cell lines were cultured using Dulbecco’s Modified Eagle Medium/Nutrient Mixture F-12 Ham (DMEM-F12) (Sigma, Ireland) (Cat# D6421) media. The MCF-7 media was supplemented with 10% Foetal Bovine Serum (Sigma, Ireland) (Cat# F7524) and 1% L-Glutamine (Sigma, Ireland) (Cat# 592020C). The MCF-12A media was supplemented with 5% Equine Serum (Sigma, Ireland) (Cat# H0146) 1.25% L-Glutamine (Sigma, Ireland) (Cat# 592020C), 20 ng/ml Human Epidermal Growth Factor (Thermo Fisher Scientific, Ireland) (Cat# PHG0313), 0.01 mg/ml insulin (Thermo Fisher Scientific, Ireland)(Cat# 12585014) and 500 ng/ml hydrocortisone (Sigma, Ireland) (Cat# H0888). The cells were grown in T75 culture flasks (Sarstedt, Germany) (Cat# 83.3911.002) and were incubated in a 5% CO2 atmosphere at 37 ℃. […] Following the incubation period, the media was removed, and cells were washed with sterile phosphate-buffered saline (PBS). […] Following the exposure period, the drug-containing media was removed, and cells were washed three times with PBS, ensuring complete removal of the test agents. A 5% working solution of Alamar Blue (Thermo Fisher Scientific, Ireland) (Cat# DAL1100) was prepared in dark conditions using unsupplemented cell culture media. 100 μl of the solution was added to each well, and the cells were incubated for 3 h. […] Each exposure was carried out in triplicate plates and was repeated three independent times. The software packages Microsoft^Ⓡ Excel (USA) and GraphPad Prism (Ver. 10.0.3) (GraphPad, USA) were used to analyse the alamar blue data. The treated sample values were first normalised to the negative control values. After normalisation, the mean and standard deviations (SD) were established using Microsoft^Ⓡ Excel. The statistical analysis package GraphPad was then used to determine the IC25 and IC50 concentrations.

Another data set concerns MCF-12A cells. Described as above. The method, then: The MCF-7 (human breast cancer) and MCF-12A (non-tumourigenic human breast) cell lines were obtained from the Technological University Dublin (TUDublin, City Campus) internal cell bank and commercially from the American Type Culture Collection (ATCC), respectively. Both cell lines were cultured using Dulbecco’s Modified Eagle Medium/Nutrient Mixture F-12 Ham (DMEM-F12) (Sigma, Ireland) (Cat# D6421) media. The MCF-7 media was supplemented with 10% Foetal Bovine Serum (Sigma, Ireland) (Cat# F7524) and 1% L-Glutamine (Sigma, Ireland) (Cat# 592020C). The MCF-12A media was supplemented with 5% Equine Serum (Sigma, Ireland) (Cat# H0146) 1.25% L-Glutamine (Sigma, Ireland) (Cat# 592020C), 20 ng/ml Human Epidermal Growth Factor (Thermo Fisher Scientific, Ireland) (Cat# PHG0313), 0.01 mg/ml insulin (Thermo Fisher Scientific, Ireland)(Cat# 12585014) and 500 ng/ml hydrocortisone (Sigma, Ireland) (Cat# H0888). The cells were grown in T75 culture flasks (Sarstedt, Germany) (Cat# 83.3911.002) and were incubated in a 5% CO2 atmosphere at 37 ℃. The cells were monitored daily, and once 80–90% confluence was reached, they were subcultured with an enzymatic dissociation method using trypsin. Both cell lines were routinely subcultured for 1 week prior to beginning experimental work, to ensure the cells had adapted to the environment.
The MCF-7 and MCF-12A cells were seeded at a density of 1 × 10^4 in 96-well flat bottom plates (Sarstedt, Germany) (Cat# 83.3924) and incubated in a 5% CO2 atmosphere at 37 ℃ for 24 h prior to exposure to the complexes. Following the incubation period, the media was removed, and cells were washed with sterile phosphate-buffered saline (PBS). […] All agents were diluted in supplemented cell culture media, and the cells were exposed to a concentration range of 0.5 μM–100 μM for 24 h in the conditions outlined previously. Following the exposure period, the drug-containing media was removed, and cells were washed three times with PBS, ensuring complete removal of the test agents. A 5% working solution of Alamar Blue (Thermo Fisher Scientific, Ireland) (Cat# DAL1100) was prepared in dark conditions using unsupplemented cell culture media. 100 μl of the solution was added to each well, and the cells were incubated for 3 h. Following incubation, absorbance values were obtained using a Varioskan Lux (Thermo Scientific, USA) at 570 nm and 600 nm wavelengths. Each exposure was carried out in triplicate plates and was repeated three independent times.
The software packages Microsoft^Ⓡ Excel (USA) and GraphPad Prism (Ver. 10.0.3) (GraphPad, USA) were used to analyse the alamar blue data. The treated sample values were first normalised to the negative control values. After normalisation, the mean and standard deviations (SD) were established using Microsoft^Ⓡ Excel. The statistical analysis package GraphPad was then used to determine the IC25 and IC50 concentrations. […] A p value of 0.05 or lower is considered to be statistically significant.

Data set [2] deals with MCF-7 cells. As to the kind of experiment: Apoptosis induction, Annexin V / propidium iodide flow cytometry. Conditions: MCF-7, IC25 concentration, 24 h. The method, then: MCF-7 and MCF-12A cells were seeded at a density of 1 × 10^5 in T25 flasks (Sarstedt, Germany) and incubated for 24 h at 37 °C with 5% CO2 allowing for attachment. Post -incubation, the media was removed, cells were washed with sterile PBS and then treated using IC25 concentrations established from the in vitro cytotoxicity screen. […] After the exposure period, the cells were enzymatically detached using trypsin, collected and centrifuged at 1200RPM for 10 min. The cells were then washed with PBS, re-centrifuged and resuspended in 1 ml of annexin binding buffer. Prior to staining, the concentration of each sample was adjusted to 1 × 10^6 cells/ml. The cells were stained with 1 μl of propidium iodide (PI) (Sigma, Ireland) (Cat #P4864) and 2 μl of Annexin V (Thermo Fisher Scientific, Ireland) (Cat #A13199). The cells were incubated at room temperature for 15 min prior to analysis. The staining process was completed in the dark to eliminate interference with photo-sensitive reagents. Immediately prior to analysis by flow cytometry, 400 μl of annexin binding buffer was added to each sample. Samples were analysed using a (CytoFLEX) (Beckman Coulter, USA). The AV/PI assay was completed three independent times.
Flow cytometry data analysis was performed with the CytExpert package (Ver. 2.4) (Beckman Coulter, USA) and Microsoft^Ⓡ Excel (USA). The mean MFI and percentage cells were calculated using these packages, followed by one-way ANOVA analysis with post hoc Bonferroni correction using GraphPad Prism (Ver. 9.4) (GraphPad, USA).
The induction of apoptosis was analysed in MCF-7 and MCF-12A cells using the Annexin V and Propidium Iodide assay with flow cytometry. […] The assay allows for the differentiation of viable, apoptotic and necrotic cells based on the selective staining of Annexin V and PI. Annexin V binds to phosphatidylserines externalised to the outer leaflet of the plasma membrane during apoptosis; and PI is a membrane impermeable dye that binds to DNA of necrotic cells with compromised plasma membranes.

The mark [3] stands for this setting: MCF-7, 24-hour exposure, per one metal centre, mean ± S.D. (N=3).
The mark [4] stands for this setting: MCF-7, 24-hour exposure, per one metal centre, mean ± S.D. (N=3), read-out: IC50 calculated per one metal centre.
Where [5] appears, read: MCF-12A, 24-hour exposure, per one metal centre, mean ± S.D. (N=3).
Where [6] appears, read: MCF-12A, 24-hour exposure, per one metal centre, mean ± S.D. (N=3), read-out: IC50 calculated per one metal centre.
Where [7] appears, read: MCF-7, 24-h exposure, 25% reduction in metabolic activity, mean ± SD (N = 3).
[8] abbreviates: MCF-12A, 24-h exposure, 25% reduction in metabolic activity, mean ± SD (N = 3).

Where two headings read alike, the source gives them in different places.

Consider `O=C([O-])CCCCCCC(=O)[O-].O=C([O-])CCCCCCC(=O)[O-].[Cu+2].[Cu+2]` [Complex 3, [Cu2(oda)2]], for which the “Cytotoxic activity IC25 ± SD” value with MCF-7 cells [1] and with MCF-12A cells was greater than 100 µM each time. Moreover, the IC50 in the data set on MCF-7 cells [1], in the data set on MCF-7 cells [1] (setting [4]), in the data set on MCF-12A cells and in the data set with MCF-12A cells (setting [6]) was greater than 100 µM in each case. Also, the “IC25 calculated per one metal centre” value in the data set on MCF-7 cells [1] (setting [3]) and in the data set on MCF-12A cells (setting [5]) was >100  µM throughout.
On to `O=C([O-])CCCCCCC(=O)[O-].[Ag+].[Ag+]` [Complex 6, [Ag2(oda)]], for which the “Decrease in toxicity compared to phen-containing complex 4” value with MCF-7 cells [1] (Ag(I) pre-cursor vs complex 4) is given as “approximately twofold”. In addition, the “Decrease in toxicity compared to phen-containing complex 5” value with MCF-7 cells [1] (Ag(I) pre-cursor vs complex 5) was roughly 3.5 fold. Besides, the “Cytotoxic activity IC25 ± SD” value is 13.90 ± 2.93 µM in the data set with MCF-7 cells [1] (setting [7]) and 6.43 ± 4.9 µM with MCF-12A cells (setting [8]). For the same molecule, the “IC25 calculated per one metal centre” value is given as 27.80 ± 5.86 µM in the data set with MCF-7 cells [1] (setting [3]) and 12.86 ± 9.80 µM in the data set on MCF-12A cells (setting [5]). Also, the “Necrotic population (% cells)” value with MCF-7 cells [2] was “high necrotic populations”.
Turning to `O.O=C([O-])CCCCCCC(=O)[O-].[Mn+2]` [Complex 8, [Mn(oda)]⋅H2O], the “Cytotoxic activity IC25 ± SD” value with MCF-7 cells [1] (setting [7]) and in the data set with MCF-12A cells (setting [8]) was greater than 100 µM in each case. Also, the IC50 in the data set with MCF-7 cells [1] (MCF-7, 24-h exposure, 50% reduction in metabolic activity, mean ± SD (N = 3), read-out: Cytotoxic activity IC50 ± SD) was greater than 100 µM; with MCF-7 cells [1] (setting [4]), greater than 100 µM; in the data set with MCF-12A cells (MCF-12A, 24-h exposure, 50% reduction in metabolic activity, mean ± SD (N = 3), read-out: Cytotoxic activity IC50 ± SD) it was greater than 100 µM; with MCF-12A cells (setting [6]), greater than 100 µM. Further, the “IC25 calculated per one metal centre” value in the data set on MCF-7 cells [1] (setting [3]) and with MCF-12A cells (setting [5]) was >100  µM throughout.
